From patent US20100048555A1, “IMIDAZOTHIAZOLE DERIVATIVES AS MARK INHIBITORS” (priority 2006, published 2010)
pIC50: −log10 of the molar value.

Target: T1, MARK3 (Homo sapiens, UniProt P27448)
T1 construct: purchased University of Dundee
Assay: MARK 3 Assay (HTRF, Cdc25C biotinylated peptide substrate)
Type: biochemical
Conditions: recombinant MARK3 enzyme, 10 μM ATP
Description: MARK3 activity was assayed in vitro using a Cdc25C biotinylated peptide substrate (Cell Signalling Technologies). The phosphopeptide product was quantitated using a Homogenous Time-Resolved Fluorescence (HTRF) assay system (Park et al., 1999, Anal. Biochem. 269:94-104). The reaction mixture contained 50 mM HEPES/Tris-HCl, pH 7.4; 10 mM NaCl, 5 mM MgCl2, 0.2 mM NaVO4, 5 mM β-glycerol phosphate, 0.1% Tween-20, 2 mM dithiothreitol, 0.1% BSA, 10 μM ATP, 1 μM peptide substrate, and 10 nM recombinant MARK3 enzyme (University of Dundee) in a final volume of 12 μl. The buffer additionally contained protease inhibitor cocktail (Roche EDTA-free, 1 tab per 50 ml). The kinase reaction was incubated for 2 hours at 25° C., and then terminated with 3 μl Stop/Detection Buffer (50 mM HEPES, pH 7.0, 16.6 mM EDTA, 0.5M KF, 0.1% Tween-20, 0.1% BSA, 2 μg/ml SLX^ent 665 (CISBIO), and 2 μg/ml Eu^3+ cryptate label antibody (CISBIO)). The reaction was allowed to equilibrate overnight at 0° C., and relative fluorescent units were read on an HTRF enabled plate reader (e.g. TECAN GENios Pro). Inhibitor compounds were assayed in the reaction described above to determine compound IC50s. Aliquots of compound dissolved in DMSO were added to the reaction wells in a third-log dilution series covering a range of 1 nM to 10 μM. Relative phospho substrate formation, read as HTRF fluorescence units, was measured over the range of compound concentrations and a titration curve generated.

[1] = range given with mixed units (500 nM to 1 μM), units kept in the value

T1 sequence (P27448 whole entry, species assumed): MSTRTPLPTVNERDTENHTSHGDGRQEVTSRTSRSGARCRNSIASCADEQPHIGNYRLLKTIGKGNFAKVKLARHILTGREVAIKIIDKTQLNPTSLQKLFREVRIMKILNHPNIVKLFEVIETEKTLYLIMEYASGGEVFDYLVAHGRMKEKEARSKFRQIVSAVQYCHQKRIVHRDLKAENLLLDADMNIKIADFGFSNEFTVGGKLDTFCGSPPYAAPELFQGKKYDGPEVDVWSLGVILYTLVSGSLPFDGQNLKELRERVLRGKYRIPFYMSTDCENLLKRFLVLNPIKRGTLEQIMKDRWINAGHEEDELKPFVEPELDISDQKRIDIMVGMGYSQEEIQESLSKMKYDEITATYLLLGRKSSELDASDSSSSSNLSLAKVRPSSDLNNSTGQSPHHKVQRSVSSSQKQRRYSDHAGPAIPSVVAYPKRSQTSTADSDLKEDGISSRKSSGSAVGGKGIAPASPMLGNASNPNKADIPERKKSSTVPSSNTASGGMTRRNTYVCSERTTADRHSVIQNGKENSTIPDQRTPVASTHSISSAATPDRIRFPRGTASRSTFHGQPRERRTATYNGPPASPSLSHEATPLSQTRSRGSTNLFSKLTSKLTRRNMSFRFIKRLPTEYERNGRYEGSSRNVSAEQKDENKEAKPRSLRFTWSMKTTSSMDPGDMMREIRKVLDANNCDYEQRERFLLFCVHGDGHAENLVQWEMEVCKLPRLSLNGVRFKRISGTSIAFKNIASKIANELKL

| Compound | pIC50 (1 μM peptide substrate) | pIC50 [1] |
| --- | --- | --- |
| O=C(Nc1ncn2c(C(F)(F)F)csc12)c1ccc(F)cc1 [Example 1, 4-Fluoro-N-[3-(trifluoromethyl)imidazo[5,1-b][1,3]thiazol-7-yl]benzamide] | 6.30 to 7.00 |  |
| O=C(Nc1ncn2c(C(F)(F)F)csc12)c1ccc(O)cc1 [Example 2, 4-Hydroxy-N-[3-(trifluoromethyl)imidazo[5,1-b][1,3]thiazol-7-yl]benzamide] |  | 6.00 to 6.30 |
| O=C(Nc1ncn2c(C(F)(F)F)csc12)c1ccc(Cl)cc1 [Example 7, 4-Chloro-N-[3-(trifluoromethyl)imidazo[5,1-b][1,3]thiazol-7-yl]benzamide] | 6.30 to 7.00 |  |
| CN1CCN(c2ccc(C(=O)Nc3ncn4c(C(F)(F)F)csc34)cc2)CC1 [Example 8, 4-(4-Methylpiperazin-1-yl)-N-[3-(trifluoromethyl)imidazo[5,1-b][1,3]thiazol-7-yl]benzamide] | > 7.00 |  |
| O=C(Nc1ncn2c(C(F)(F)F)csc12)c1ccc(N2CCOCC2)cc1 [Example 9] | 6.30 to 7.00 |  |
| O=C(Nc1ncn2c(C(F)(F)F)csc12)c1ccc(OCCN2CCCCC2)cc1 [Example 12, 4-(2-Piperidin-1-ylethoxy)-N-[3-(trifluoromethyl)imidazo[5,1-b][1,3]thiazol-7-yl]benzamide] | > 7.00 |  |

Now from value to compound:

| pIC50 (1 μM peptide substrate) | pIC50 [1] | Compound |
| --- | --- | --- |
|  | 6.00 to 6.30 | O=C(Nc1ncn2c(C(F)(F)F)csc12)c1cccc(OCCN2CCCCC2)c1 [Example 13, 3-(2-Piperidin-1-ylethoxy)-N-[3-(trifluoromethyl)imidazo[5,1-b][1,3]thiazol-7-yl]benzamide] |
| 6.30 to 7.00 | 6.00 to 6.30 | O=C(Nc1ncn2c(C(F)(F)F)csc12)c1ccc(CO)cc1 [Example 14, 4-(Hydroxymethyl)-N-[3-(trifluoromethyl)imidazo[5,1-b][1,3]thiazol-7-yl]benzamide] |
| 6.30 to 7.00 |  | O=C(Nc1ncn2c(C(F)(F)F)csc12)c1ccc(CN2CCOCC2)cc1 [Example 16, 4-(Morpholin-4-ylmethyl)-N-[3-(trifluoromethyl)imidazo[5,1-b][1,3]thiazol-7-yl]benzamide] |
| 6.30 to 7.00 |  | O=C(Nc1ncn2c(C(F)(F)F)csc12)c1ccc(CN2CCCCC2)cc1 [Example 17, 4-(Piperidin-1-ylmethyl)-N-[3-(trifluoromethyl)imidazo[5,1-b][1,3]thiazol-7-yl]benzamide] |
| 6.30 to 7.00 |  | CN1CCN(Cc2ccc(C(=O)Nc3ncn4c(C(F)(F)F)csc34)cc2)CC1 [Example 18, 4-[(4-methylpiperazin-1-yl)methyl]-N-[3-(trifluoromethyl)imidazo[5,1-b][1,3]thiazol-7-yl]benzamide] |
|  | 6.00 to 6.30 | CN1CCN(c2ccc(C(=O)Nc3ncn4c(C(F)(F)F)csc34)cn2)CC1 [Example 19, 6-(4-methylpiperazin-1-yl)-N-[3-(trifluoromethyl)imidazo[5,1-b][1,3]thiazol-7-yl]nicotinamide] |
